Literature values as cited in US5424456A, “N-arylalkylderivatives of 2-aminomethyl-2,3-dihydro-1,4-benzodioxine and the process of preparation thereof” (Vyzkumny Ustav Pro Farmacii A Biochemii s.p., priority 1991, dated 1995).

Experiments:
[1] = system: α-adrenergic receptors; conditions: cited from earlier work
[2] = compared to Verapamil; cited from earlier work

For `c1ccc2c(c1)OCC(CN1CCCCC1)O2` (centres unmarked) [Piperoxan], the α-adrenergic receptor blocking [1] is given as “block the α-adrenergic receptors in a competitive manner”.
For `COc1ccc(CCN(C)CCCC(C#N)(c2ccccc2C)C(C)C)cc1OC` (centres unmarked) [Mepamil], the negative inotropic activity [2] is listed as “lower negative inotropic activity”.
